Measured values taken from patent publication US10849867B2, “Methods and compositions for treating conditions associated with an abnormal inflammatory response” (First Wave Bio, Inc., priority 2015, dated 2020).

Legend:
[1] = Pharmacokinetics following a single rectal administration to NZW rabbits (Example 11); assay type: in vivo, New Zealand White KBL Rabbit; conditions: Treatment B 7.5, NZW rabbits; for concentration at 2 h / concentration at 4 h / concentration at 8 h / concentration at 24 h: male, New Zealand White KBL, rabbit, plasma, other: rectal, 7.5 mg, Niclosamide Plasma Concentrations
Text: Following dosing, blood samples and rectal mucosa was obtained at indicated time points.

[2] = system: LPMC T cells; experiment: LPMC T cell death, 7-AAD flow cytometry (Example 3); assay type: cell-based, human
Method: Objective. […] Model. The human LPMC model as described in Example 2 was used. Cell isolation and culture. Cell isolation and culture procedures were as detailed in Example 2. Treatment with Niclosamide. […] […] […] After treatment cells were exposed to 1 μM 7AAD then incubated a further 60 minutes at 37° C. Live cells and dead cells were enumerated by flow cytometer using a FACS Verse cytometer set to excite and measure emitted fluorescence of 7-AAD at appropriate wavelengths. Detecting viable and dead cells. 7-AAD is excluded from live cells but free to enter dead cells where it undergoes a spectral shift after interacting with cellular DNA. […] Use of this reagent allows viable cells and dead cells to be simultaneously enumerated. In order to specifically distinguish T cells from other cells in LPMCs, anti-CD3 monoclonal antibody labeled with FITC (excitation at 494 nm with emission detected at 521 nm) will be used. This antibody specifically binds human CD3 antigen that is selectively expressed on T cells. Cell viability and death was determined specifically in T cells by measuring 7-AAD fluorescence in cells labeled by anti-CD3 FITC. Calculation of T cell death. The fluorescence intensity of 7-AAD detected at 647 nm was measured specifically T the cell population that was first defined as described in Example 2 by FITC-anti-CD3 antibody fluorescence. […] For statistical comparisons, 95% confidence intervals were computed and graphed with the mean values.

[3] = system: TNBS-induced colitis; experiment: Relapsing TNBS-induced colitis in mice, rectal niclosamide (Example 4); assay type: in vivo, C57BL/6J female mice; conditions: relative to vehicle control
Text: Objective. […] Model. The TNBS-induced colitis is a commonly used experimental model for Inflammatory Bowel Disease (IBD). TNBS (trinitrobenzenesulfonic acid) is a chemical administered rectally in the form of an enema to mice or rats in combination with ethanol, which disrupts the mucous barrier, and induces colitis by […] proteins within the gut, causing them to become preferential targets for immune cells. The severity of TNBS-induced colitis depends largely on the dosage applied and the strain of animal used. In chronic, relapsing form of the model, animals are sensitized by escalating, intracolonic doses of TNBS. Disease is monitored in-life by weight loss. Histology of colon specimens is used to determine disease severity at study termination (Gastroenterology. 2003 December; 125(6). 1750-61; Inflamm Bowel Dis. 2006 October; 12(10):995-9.) Mouse strain and housing. C57BL/6J female mice (9-weeks old) are purchased by Jackson and are housed at a temperature ranging from 68 to 74° F. with a diurnal 12 hour light cycle in a specific pathogen-free facility in ventilated cages. Food and water is provided ad libitum. Animals are acclimated to local microbiota for 7 days before the beginning of the experiment. Cell isolation and culture procedures are as noted in Example 2. Conditioning to induce colitis. To perform the studies of relapsing hapten-induced colitis 4 escalating doses of TNBS in 50% ethanol are administered at weekly intervals to lightly anesthetized mice through a 3.5Fr catheter inserted into the rectum. The catheter tip is inserted 4 cm proximal to the anal verge, and 150 μL of fluid is slowly instilled into the colon, after which the mouse is held in a vertical position for 30 seconds per rectum at weekly intervals. […] For the clinical assessment of colitis, animal weight, diarrhea (0=absent; 1=present), rectal prolapse (0=absent; l=present) and presence of blood in the stool (0=absent; l=present) is recorded daily. […] For statistical comparisons, two-way Anova test with Bonferroni correction is calculated with […] software.

O=C(Nc1ccc([N+](=O)[O-])cc1Cl)c1cc(Cl)ccc1O [Niclosamide, 5-chloro-N-(2-chloro-4-nitrophenyl)-2-hydroxybenzamide]
Niclosamide Plasma Concentrations, Mean ([1]; 1 h): 3.9275 ng/mL
concentration at 2 h ([1]; Mean, 2 h): 19.7 ng/mL
concentration at 4 h ([1]; Mean, 4 h): 12 ng/mL
concentration at 8 h ([1]; Mean, 8 h): 4.68 ng/mL
concentration at 24 h ([1]; Mean, 24 h): 1.07 ng/mL
concentration at 2 h ([1]; Subject 666, 2 h): 5.19 ng/mL
concentration at 8 h ([1]; Subject 666, 8 h): 4.73 ng/mL
concentration at 2 h ([1]; Subject 667, 2 h): 3.26 ng/mL
concentration at 8 h ([1]; Subject 667, 8 h): 4.63 ng/mL
concentration at 24 h ([1]; Subject 667, 24 h): 1.07 ng/mL
concentration at 2 h ([1]; Subject 668, 2 h): 50.7 ng/mL
concentration at 4 h ([1]; Subject 668, 4 h): 2.21 ng/mL
LPMC T cell death ([2]; 1-500 μM, 24 hours, 7-AAD in CD3+ cells): dose-related increase
concentrations that fail to induce T cell death ([2]; LPMC T cells): below 5 μM
concentrations of niclosamide that significantly increase T cell death (p<0.05) ([2]; relative to negative controls with vehicle alone): ≥ 5 µM
colitis clinical scores ([3]; daily, 1-100 mg/kg): dose-related decrease
colitis histologic scores ([3]; daily, 1-100 mg/kg): dose-related decrease
doses that significantly reduce both clinical and histologic scores (p<0.05) [3]: ≥ 3 mg/kg
